Values joined by “and” are separate entries in the source; they are usually repeats but may differ in a detail not shown here. Identical values can stand only once.
Tests used:
[1] = cited from earlier work
[2] = Storage stability of FP-CIT linear precursor in storage solvent (purity over 12 months by HPLC analysis); type: physicochemical
Protocol: HPLC analysis was carried out using the same experimental method and analytic conditions as in Example 1-1, except that the storage temperature was -20°C. […] The purity of the FP-CIT linear precursor over time is summarized in FIG. 4 and the following Table 3.
HPLC analysis was carried out using the same experimental method and analytic conditions as in Example 1-1, except that the storage concentration was 8 mg/mL. […] The purity of the FP-CIT linear precursor over time is summarized in FIG. 5 and the following Table 4.
HPLC analysis was carried out using the same experimental method and analytic conditions as in Example 3-1, except that the storage temperature was -20°C. […] The purity of the FP-CIT linear precursor over time is summarized in FIG. 5 and the following Table 4.

ClCCl [Dichloromethane (DCM), Dichloromethane]
Water solubility (g/100 mL, 20°C) [1]: 1.6 g/100 mL

CCOC(C)=O [Ethyl acetate (EA), Ethyl acetate]
Water solubility (g/100 mL, 20°C) [1]: 8.3 g/100 mL

COC(=O)C1C(c2ccc(I)cc2)CC2CCC1N2CCCOS(C)(=O)=O (stereo not drawn) [FP-CIT linear precursor]
purity of the FP-CIT linear precursor ([2]; CHCl3, 1 mg/mL, -20°C, 0 months (start of storage assumed 100%)): 100.0%
purity of the FP-CIT linear precursor ([2]; CHCl3, 1 mg/mL, -20°C, 3 months): 79.4%
purity of the FP-CIT linear precursor ([2]; CHCl3, 1 mg/mL, -20°C, 5 months): 65% and 65.1%
purity of the FP-CIT linear precursor ([2]; CHCl3, 1 mg/mL, -20°C, 7 months): 57.1%
purity of the FP-CIT linear precursor ([2]; CHCl3, 1 mg/mL, -20°C, 9 months): 53.2%
purity of the FP-CIT linear precursor ([2]; CHCl3, 1 mg/mL, room temperature, 0 months (start of storage assumed 100%)): 100.0%
purity of the FP-CIT linear precursor ([2]; CHCl3, 1 mg/mL, room temperature, 3 months): 60.4%
purity of the FP-CIT linear precursor ([2]; CHCl3, 1 mg/mL, room temperature, 7 months): 2.2%
purity of the FP-CIT linear precursor ([2]; CHCl3, 1 mg/mL, room temperature, 9 months): 0.7%
purity of the FP-CIT linear precursor ([2]; DCM, 1 mg/mL, -20°C, 0 months (start of storage assumed 100%)): 100.0%
purity of the FP-CIT linear precursor ([2]; DCM, 1 mg/mL, -20°C, 3 months): 93.5%
purity of the FP-CIT linear precursor ([2]; DCM, 1 mg/mL, -20°C, 7 months): 73.2%
purity of the FP-CIT linear precursor ([2]; DCM, 1 mg/mL, -20°C, 9 months): 71.3%
purity of the FP-CIT linear precursor ([2]; DCM, 1 mg/mL, room temperature, 0 months (start of storage assumed 100%)): 100.0%
purity of the FP-CIT linear precursor ([2]; DCM, 1 mg/mL, room temperature, 3 months): 47.0%
purity of the FP-CIT linear precursor ([2]; DCM, 1 mg/mL, room temperature, 5 months): 34% and 34.2%
purity of the FP-CIT linear precursor ([2]; DCM, 1 mg/mL, room temperature, 7 months): 30.9%
purity of the FP-CIT linear precursor ([2]; DCM, 1 mg/mL, room temperature, 9 months): 13.1%
purity of the FP-CIT linear precursor ([2]; EA, 1 mg/mL, -20°C, 0 months (start of storage assumed 100%)): 100.0%
purity of the FP-CIT linear precursor ([2]; EA, 1 mg/mL, -20°C, 1 month): 97.5%
purity of the FP-CIT linear precursor ([2]; EA, 1 mg/mL, -20°C, 3 months): 97.4%
purity of the FP-CIT linear precursor ([2]; EA, 1 mg/mL, -20°C, 5 months): 96.7%
purity of the FP-CIT linear precursor ([2]; EA, 1 mg/mL, -20°C, 7 months): 96.4%
purity of the FP-CIT linear precursor ([2]; EA, 1 mg/mL, -20°C, 9 months): 96.4%
purity of the FP-CIT linear precursor ([2]; EA, 1 mg/mL, room temperature, 0 months (start of storage assumed 100%)): 100.0%
purity of the FP-CIT linear precursor ([2]; EA, 1 mg/mL, room temperature, 3 months): 91.2%
purity of the FP-CIT linear precursor ([2]; EA, 1 mg/mL, room temperature, 7 months): 39.8%
purity of the FP-CIT linear precursor ([2]; EA, 1 mg/mL, room temperature, 9 months): 28.4%
purity of the FP-CIT linear precursor ([2]; EA, 8 mg/mL, -20°C, 0 months (start of storage assumed 100%)): 100.0%
purity of the FP-CIT linear precursor ([2]; EA, 8 mg/mL, -20°C, 1 month): 99.3%
purity of the FP-CIT linear precursor ([2]; EA, 8 mg/mL, -20°C, 3 months): 99.0%
purity of the FP-CIT linear precursor ([2]; EA, 8 mg/mL, -20°C, 7 months): 96.7%
purity of the FP-CIT linear precursor ([2]; EA, 8 mg/mL, -20°C, 9 months): 96.4%
purity of the FP-CIT linear precursor ([2]; EA, 8 mg/mL, room temperature, 0 months (start of storage assumed 100%)): 100.0%
purity of the FP-CIT linear precursor ([2]; EA, 8 mg/mL, room temperature, 3 months): 64.3%
purity of the FP-CIT linear precursor ([2]; EA, 8 mg/mL, room temperature, 5 months): 43% and 43.3%
purity of the FP-CIT linear precursor ([2]; EA, 8 mg/mL, room temperature, 7 months): 16.2%
purity of the FP-CIT linear precursor ([2]; EA, 8 mg/mL, room temperature, 9 months): 13.5%
purity of the FP-CIT linear precursor ([2]; THF, 1 mg/mL, -20°C, 0 months (start of storage assumed 100%)): 100.0%
purity of the FP-CIT linear precursor ([2]; THF, 1 mg/mL, -20°C, 1 month): 98.0%
purity of the FP-CIT linear precursor ([2]; THF, 1 mg/mL, -20°C, 3 months): 96.7%
purity of the FP-CIT linear precursor ([2]; THF, 1 mg/mL, -20°C, 7 months): 95.1%
purity of the FP-CIT linear precursor ([2]; THF, 1 mg/mL, -20°C, 9 months): 94.7%
purity of the FP-CIT linear precursor ([2]; THF, 1 mg/mL, room temperature, 0 months (start of storage assumed 100%)): 100.0%
purity of the FP-CIT linear precursor ([2]; THF, 1 mg/mL, room temperature, 3 months): 89.9%
purity of the FP-CIT linear precursor ([2]; THF, 1 mg/mL, room temperature, 7 months): 56.6%
purity of the FP-CIT linear precursor ([2]; THF, 1 mg/mL, room temperature, 9 months): 25.6%
purity of the FP-CIT linear precursor ([2]; THF, 8 mg/mL, -20°C, 0 months (start of storage assumed 100%)): 100.0%
purity of the FP-CIT linear precursor ([2]; THF, 8 mg/mL, -20°C, 1 month): 98.8%
purity of the FP-CIT linear precursor ([2]; THF, 8 mg/mL, -20°C, 3 months): 97.5%
purity of the FP-CIT linear precursor ([2]; THF, 8 mg/mL, -20°C, 7 months): 94.7%
purity of the FP-CIT linear precursor ([2]; THF, 8 mg/mL, -20°C, 9 months): 94.4%
purity of the FP-CIT linear precursor ([2]; THF, 8 mg/mL, -20°C, 12 months): 89% and 89.7%
purity of the FP-CIT linear precursor ([2]; THF, 8 mg/mL, room temperature, 0 months (start of storage assumed 100%)): 100.0%
purity of the FP-CIT linear precursor ([2]; THF, 8 mg/mL, room temperature, 3 months): 72.9%
purity of the FP-CIT linear precursor ([2]; THF, 8 mg/mL, room temperature, 5 months): 30% and 30.4%
purity of the FP-CIT linear precursor ([2]; THF, 8 mg/mL, room temperature, 7 months): 5.5%
purity of the FP-CIT linear precursor ([2]; THF, 8 mg/mL, room temperature, 9 months): 5.5%

— patent EP4786470A1, “METHOD FOR S[…]-CIT LINEAR PRECURSOR WITH HIGH PURITY, AND METHOD FOR PREPARING [18F]FP-CIT BY USING SAME” (The Asan Foundation, priority 2023, dated 2025)
